Measurements reported in patent US11191806B2, “Polymyxin-based pharmaceutical composition for treating infectious diseases” (priority 2018, dated 2021).
Bridge positions count the residues as written; N and C are the ends. Square brackets hold non-standard residues; d marks the D form. Peptide text beside a SMILES is read from it. * marks the point of attachment. X1 = CC[C@H](C)CCCCC(=O)*; Dab = NCC[C@H](N)C(=O)O

Key:
[1] = Accumulation of colistin in the kidneys after intravenous injection; format: in vivo; details: rats, colistin 0.5 mg/kg, SCDC 2 mg/kg
Protocol: In this experiment was determined, the accumulation of colistin in the kidneys of rats after intravenous injection of Polyfro (colistin, SCDC and liposomal cholecalciferol). Concentrations of colistin (CC), SCDC/cholecalciferol (CCF) were used based on preliminary modeling (the number of binding sites in one molecule, multiplied by their number in one megalin molecule, the molecular weight of megalin and the approximate amount of megalin in one kidney and the weight of the kidney) The result was the required amount of SCDC about 2 mg/kg of weight. For CS, a subtoxic dose was selected (based on the instructions). This is an experiment on the “displacement” of polymyxin from the kidneys with a synergistic combination of SCDC/HCF. As a result, about half of the polymyxin was displaced from the kidneys by SCDC/HCF. All components of CC, SCDC/CCF were determined in the sediment of renal homogenate and supernatant by HPLC. […] The content of colistin in the kidneys (A) and its concentration in terms of the weight of the kidneys (μg/g) (B) are shown in FIG. 1.
All data are statistically significant and differences between groups and controls are significant.

[2] = Degree of destruction of kidney tissue: urinary NGAL and NAG (ELISA); format: in vivo, rats
Protocol: The degree of destruction of kidney tissue was determined by the concentration in the urine of acetyl-beta-glucosaminidase (N-acetyl-beta-d-glucosaminidase) (NAG) and neutrophilic gelatinase-associated lipocalin (neutrophil gelatinase-associated lipocalin) (NGAL) (Table 5).
The concentrations of NGAL and NAG in urine were determined using ELISA-text systems on a StatFax303+reader.

[3] = target: T1, megalin of rat kidney homogenate (Rattus norvegicus, UniProt P98158); test: Binding of cyanocobalamin derivatives to renal megalin (micromethod in Eppendorf tubes, HPLC of supernatant); details: derivative in supernatant after centrifugation determined by HPLC
T1 construct: megalin of rat kidney homogenate; from tissue; host or cells: rat kidney homogenate
Protocol: The test was carried out by a micromethod in Eppendorf tubes on the ability of cyanocobalamin derivatives to bind to megalin: after centrifugation, the bound derivative together with megalin remained in the sediment, and the percentage of the remaining unreacted cyanocobalamin derivative in the supernatant was determined using HPLC on a Milichrom A-02 liquid chromatograph.

[4] = Table 5, rats, i.v. 1 time per day for 10 days, 0.5/15 mg/kg polymyxin/SCDC

T1 sequence (P98158 26-4660): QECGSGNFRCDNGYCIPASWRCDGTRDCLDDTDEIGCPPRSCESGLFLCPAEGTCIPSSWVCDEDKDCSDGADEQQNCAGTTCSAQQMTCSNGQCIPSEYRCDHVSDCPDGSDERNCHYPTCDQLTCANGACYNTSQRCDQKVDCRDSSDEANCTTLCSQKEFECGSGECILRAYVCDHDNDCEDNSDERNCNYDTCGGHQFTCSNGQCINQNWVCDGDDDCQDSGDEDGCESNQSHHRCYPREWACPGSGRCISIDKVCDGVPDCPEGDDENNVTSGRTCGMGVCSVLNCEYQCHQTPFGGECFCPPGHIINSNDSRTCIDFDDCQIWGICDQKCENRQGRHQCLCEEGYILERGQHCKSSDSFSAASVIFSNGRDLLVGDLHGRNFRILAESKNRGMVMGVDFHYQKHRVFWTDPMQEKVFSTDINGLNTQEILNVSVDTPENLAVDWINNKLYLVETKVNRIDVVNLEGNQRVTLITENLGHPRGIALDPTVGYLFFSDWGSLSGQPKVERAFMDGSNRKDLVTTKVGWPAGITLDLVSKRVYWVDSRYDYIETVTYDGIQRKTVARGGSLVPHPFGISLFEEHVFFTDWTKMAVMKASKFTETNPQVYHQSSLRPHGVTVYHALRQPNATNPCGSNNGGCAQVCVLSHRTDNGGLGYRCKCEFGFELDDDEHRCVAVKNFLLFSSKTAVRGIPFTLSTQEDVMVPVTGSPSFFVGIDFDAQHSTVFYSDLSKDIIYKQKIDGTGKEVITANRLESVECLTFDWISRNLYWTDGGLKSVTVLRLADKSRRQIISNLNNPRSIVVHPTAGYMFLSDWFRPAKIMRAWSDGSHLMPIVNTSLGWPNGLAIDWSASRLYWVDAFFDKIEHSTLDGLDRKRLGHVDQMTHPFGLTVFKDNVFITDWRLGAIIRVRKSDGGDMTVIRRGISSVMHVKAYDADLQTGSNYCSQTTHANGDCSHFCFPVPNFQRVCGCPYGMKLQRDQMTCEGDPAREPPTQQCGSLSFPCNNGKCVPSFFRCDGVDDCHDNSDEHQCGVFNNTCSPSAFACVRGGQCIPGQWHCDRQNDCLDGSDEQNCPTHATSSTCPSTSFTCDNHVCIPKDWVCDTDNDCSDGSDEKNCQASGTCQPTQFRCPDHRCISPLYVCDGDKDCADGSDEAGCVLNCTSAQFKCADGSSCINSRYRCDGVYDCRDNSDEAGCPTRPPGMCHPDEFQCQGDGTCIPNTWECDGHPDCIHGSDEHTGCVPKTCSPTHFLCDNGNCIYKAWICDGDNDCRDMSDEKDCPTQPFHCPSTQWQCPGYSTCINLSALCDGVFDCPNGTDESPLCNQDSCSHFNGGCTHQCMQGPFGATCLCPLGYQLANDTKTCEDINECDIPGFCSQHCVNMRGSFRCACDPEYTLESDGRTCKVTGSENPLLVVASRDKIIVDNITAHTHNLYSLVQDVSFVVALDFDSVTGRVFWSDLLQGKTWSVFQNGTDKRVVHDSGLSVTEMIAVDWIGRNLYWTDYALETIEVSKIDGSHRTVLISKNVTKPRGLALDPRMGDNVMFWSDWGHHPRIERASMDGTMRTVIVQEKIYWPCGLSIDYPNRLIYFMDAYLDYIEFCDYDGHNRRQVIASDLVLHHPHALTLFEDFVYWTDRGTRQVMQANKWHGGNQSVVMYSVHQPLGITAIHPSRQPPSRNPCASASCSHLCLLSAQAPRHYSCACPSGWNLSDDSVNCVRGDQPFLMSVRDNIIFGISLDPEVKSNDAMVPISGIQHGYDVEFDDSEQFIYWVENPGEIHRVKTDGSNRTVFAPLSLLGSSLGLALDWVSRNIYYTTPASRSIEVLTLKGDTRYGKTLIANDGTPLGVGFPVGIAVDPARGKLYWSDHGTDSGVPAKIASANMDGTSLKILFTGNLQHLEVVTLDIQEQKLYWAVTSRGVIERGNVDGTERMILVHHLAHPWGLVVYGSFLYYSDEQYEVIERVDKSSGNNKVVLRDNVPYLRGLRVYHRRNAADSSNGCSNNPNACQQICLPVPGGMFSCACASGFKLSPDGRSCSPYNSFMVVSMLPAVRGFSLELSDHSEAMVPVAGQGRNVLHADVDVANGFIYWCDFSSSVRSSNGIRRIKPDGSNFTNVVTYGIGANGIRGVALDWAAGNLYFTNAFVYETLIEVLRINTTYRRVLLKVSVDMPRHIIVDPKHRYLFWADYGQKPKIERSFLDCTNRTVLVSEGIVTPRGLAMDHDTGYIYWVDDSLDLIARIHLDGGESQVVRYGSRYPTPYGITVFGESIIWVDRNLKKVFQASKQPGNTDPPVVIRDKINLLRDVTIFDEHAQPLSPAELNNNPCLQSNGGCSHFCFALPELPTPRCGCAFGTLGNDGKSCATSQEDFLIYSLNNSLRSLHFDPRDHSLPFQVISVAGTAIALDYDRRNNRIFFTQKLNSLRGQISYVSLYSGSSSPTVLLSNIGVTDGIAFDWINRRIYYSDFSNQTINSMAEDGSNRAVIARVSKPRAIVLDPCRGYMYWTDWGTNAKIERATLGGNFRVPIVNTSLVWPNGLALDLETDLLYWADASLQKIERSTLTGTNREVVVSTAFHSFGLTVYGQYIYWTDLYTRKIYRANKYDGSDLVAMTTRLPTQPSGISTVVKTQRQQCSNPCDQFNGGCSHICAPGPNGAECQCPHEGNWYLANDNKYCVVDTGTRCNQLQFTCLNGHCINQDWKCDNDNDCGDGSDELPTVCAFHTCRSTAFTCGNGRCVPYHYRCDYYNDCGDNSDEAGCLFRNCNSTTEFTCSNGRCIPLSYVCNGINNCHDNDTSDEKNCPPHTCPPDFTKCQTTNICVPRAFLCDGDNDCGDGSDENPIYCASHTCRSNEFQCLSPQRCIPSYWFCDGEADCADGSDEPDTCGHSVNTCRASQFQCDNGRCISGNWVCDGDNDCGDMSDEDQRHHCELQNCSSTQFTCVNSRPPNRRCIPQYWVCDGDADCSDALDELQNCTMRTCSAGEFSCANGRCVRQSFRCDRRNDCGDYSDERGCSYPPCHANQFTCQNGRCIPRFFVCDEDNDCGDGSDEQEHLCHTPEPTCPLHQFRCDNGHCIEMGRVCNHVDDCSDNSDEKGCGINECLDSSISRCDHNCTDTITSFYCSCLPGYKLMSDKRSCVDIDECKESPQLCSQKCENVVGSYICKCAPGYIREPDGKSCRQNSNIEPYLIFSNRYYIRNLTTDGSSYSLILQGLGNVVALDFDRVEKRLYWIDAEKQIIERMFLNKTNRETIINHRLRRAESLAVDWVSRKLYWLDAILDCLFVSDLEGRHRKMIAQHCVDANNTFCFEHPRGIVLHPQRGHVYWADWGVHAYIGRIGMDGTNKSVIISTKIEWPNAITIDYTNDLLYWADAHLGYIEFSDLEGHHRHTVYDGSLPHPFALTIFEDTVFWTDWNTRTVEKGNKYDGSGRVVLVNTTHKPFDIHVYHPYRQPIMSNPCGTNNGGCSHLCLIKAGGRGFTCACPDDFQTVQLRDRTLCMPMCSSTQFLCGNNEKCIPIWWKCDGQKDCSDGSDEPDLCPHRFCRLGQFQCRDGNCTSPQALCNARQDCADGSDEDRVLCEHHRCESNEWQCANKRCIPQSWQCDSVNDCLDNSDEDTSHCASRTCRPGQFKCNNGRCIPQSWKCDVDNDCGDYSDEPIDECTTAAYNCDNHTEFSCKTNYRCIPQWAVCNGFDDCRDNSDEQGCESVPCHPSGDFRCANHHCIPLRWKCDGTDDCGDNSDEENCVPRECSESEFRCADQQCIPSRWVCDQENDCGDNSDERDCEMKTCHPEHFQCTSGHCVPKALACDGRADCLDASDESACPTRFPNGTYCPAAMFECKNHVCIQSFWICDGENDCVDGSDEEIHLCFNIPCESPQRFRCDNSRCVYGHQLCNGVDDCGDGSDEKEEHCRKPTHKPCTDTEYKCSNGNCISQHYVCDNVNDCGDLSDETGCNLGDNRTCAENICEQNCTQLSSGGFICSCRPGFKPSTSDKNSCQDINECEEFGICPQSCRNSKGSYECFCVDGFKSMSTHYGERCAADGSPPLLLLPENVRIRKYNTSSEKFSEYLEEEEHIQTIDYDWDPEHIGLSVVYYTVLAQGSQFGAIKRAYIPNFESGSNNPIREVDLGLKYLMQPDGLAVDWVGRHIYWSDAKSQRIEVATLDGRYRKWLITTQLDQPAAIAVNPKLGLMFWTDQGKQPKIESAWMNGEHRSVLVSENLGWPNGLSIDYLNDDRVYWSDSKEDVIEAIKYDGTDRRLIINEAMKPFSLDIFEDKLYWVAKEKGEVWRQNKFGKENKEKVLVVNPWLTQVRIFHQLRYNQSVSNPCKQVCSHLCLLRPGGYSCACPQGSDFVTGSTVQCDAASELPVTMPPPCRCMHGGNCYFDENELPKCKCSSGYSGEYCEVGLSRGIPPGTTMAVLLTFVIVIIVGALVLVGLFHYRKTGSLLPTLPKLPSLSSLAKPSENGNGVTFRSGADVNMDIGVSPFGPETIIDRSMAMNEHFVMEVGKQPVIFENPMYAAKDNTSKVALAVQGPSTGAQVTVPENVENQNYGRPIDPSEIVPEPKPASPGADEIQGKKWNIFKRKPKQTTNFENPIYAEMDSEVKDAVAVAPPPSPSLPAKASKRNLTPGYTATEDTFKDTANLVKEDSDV

Compound: CC[C@H](C)CCCCC(=O)N[C@@H](CCN)C(=O)N[C@H](C(=O)N[C@@H](CCN)C(=O)N[C@H]1CCNC(=O)[C@H]([C@@H](C)O)NC(=O)[C@H](CCN)NC(=O)[C@H](CCN)NC(=O)[C@H](CC(C)C)NC(=O)[C@@H](CC(C)C)NC(=O)[C@H](CCN)NC1=O)[C@@H](C)O [Colistin, colistin] (X1-[Dab]T[Dab][Dab][Dab][dL]L[Dab][Dab]T; lactam 4-C)
- Accumulation of colistin in the kidneys [1]: 20.5 ± 2.5 µg
- Urinary Excretion of NGAL [2, 4]: 775 ± 33 µg/h
- Urinary NAG Excretion [2, 4]: 2578 ± 95 µg/h
- Urinary Excretion of NGAL ([2]; Table 6, n = 15): 775 ± 33 µg/h
- Urinary NAG Excretion ([2]; Table 6, n = 15): 2578 ± 95 µg/h

Compound: cyanocobalamin [derivative 11]
- % bound derivative [3]: 52%

Compound: triacetyl-cyanocobalamin [derivative 31]
- % bound derivative [3]: 7%

Compound: trisuccinyl-cyanocobalamin [derivative 30]
- % bound derivative [3]: 6%
